In patent US20100151486A1, “OSTEOPONTIN FUNCTIONAL EPITOPES, MONOCLONAL ANTIBODIES AGAINST THE EPITOPES AND USES THEREOF” (SHANGHAI NATIONAL ENGINEERING RESEARCH CENTER OF A, priority 2007, published 2010):
Each block holds one molecule with its values, some of them ahead of it.

Assays:
[1] = tested on: human vascular endothelial cell (HUVEC); test: HUVEC proliferation by 3H-TdR incorporation; assay type: cell-based; conditions: M200+1% BSA+OPN; 24 hours
Description: HUVEC cell proliferation was measured by the ^3H-TdR incorporation method to determine the protective effect of OPN on cell survival and the inhibitory effect of the anti-OPN antibodies on the OPN protection. Each well of a 96-well plate was inoculated with 2×10^4 HUVECs and cultured in a complete medium for 24 hours. The cells were then treated as following for 24 hours: […]
iv. M200+1% BSA+OPN+murine anti-OPN antibody 1A12 v. M200+1% , BSA+OPN+human-murine chimeric anti-OPN antibody c1A12 vi. M200+1% BSA+OPN+humanized anti-OPN antibody h1A12 vii. M200+1% BSA+OPN+irrelevant antibody
24 hours later, 1 uCi/well ^3H-thymidine was added and, after being incubated at 37° C. for 6 hours, washed once with PBS. The plate was treated with ice-cold 10% trichloroacetic acid/H2O at 4° C. for 10 min, and then washed for two times with, ice-cold ddH2O. Cytolysis was conducted by adding into each well 0.1 ml of 0.5 N NaOH, 0.5% SDS at room temperature for 10 min. After adding 0.2 ml of 0.5 N HCl and mixing, the cells were collected using a multiple cell collector.

[2] = tested on: chicken embryo chorioallantoic membrane (CAM); test: Chicken embryo chorioallantoic membrane (CAM) angiogenesis assay; assay type: in vivo; conditions: human OPN 250 ng; P<0.01
Description: The Leghorn chicken embryos were purchased from the farm with a fertilization rate of >90%. The 8-day old chicken embryos were selected. After sterilization, a small hole was drilled in the center of the top air chamber of the embryo with a lancet, the surrounding shell with the inner membrane was removed with caution to create an opening of 1 cm×1 cm. Then the following analytes/gelatin sponge were added to the CAM surface: i) PBS; ii) HOPN; iii) human OPN (250 ng); iv) human OPN (250 ng)+the irrelevant antibody as control (1 μg); v) human OPN (250 ng)+the murine anti-OPN antibody 1A12 (1 μg); vi) human OPN (250 ng)+the murine-human chimeric anti-OPN antibody c1A12 (1 μg); vii) human OPN (250 ng)+the humanized anti-OPN antibody h1A1.2 (1 μg).
The analytes/gelatin sponge were added to the CAM surface, which was far away from the already-formed dense vascular network. […] The number of vessels within an area edging 2 mm from the edges of the carrier slide was counted under a dissecting microscope to study the angiogenesis using the “vascular index” (Ribatti, D., B. Nico, A. Vacca et al., The gelatin sponge-chorioallantoic membrane assay. Nat Protoc, 2006, 1 (1): 85-91). The number of vessel was counted at the same magnification under the dissecting microscope. The result in each sample group was expressed as “mean±standard deviation (x±S)”. […]

[3] = target: T1, human osteopontin (human OPN protein) (human, UniProt P10451 17-314, limits assumed); test: Western blot on purified recombinant OPN
T1 construct: The isoform follows from the 963 bp PCR fragment and is not otherwise stated; also called hOPN
T1 sequence (P10451 17-314 limits assumed): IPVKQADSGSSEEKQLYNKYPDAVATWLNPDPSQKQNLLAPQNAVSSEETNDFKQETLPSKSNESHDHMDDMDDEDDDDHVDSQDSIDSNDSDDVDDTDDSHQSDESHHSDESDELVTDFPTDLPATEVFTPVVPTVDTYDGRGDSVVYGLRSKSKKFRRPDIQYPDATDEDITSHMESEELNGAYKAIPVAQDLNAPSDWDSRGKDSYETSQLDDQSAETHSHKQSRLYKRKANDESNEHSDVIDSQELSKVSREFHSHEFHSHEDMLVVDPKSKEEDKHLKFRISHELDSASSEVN

[4] = target: T1, human osteopontin (human OPN protein); test: ELISA, plate coated with OPN 2 ug/ml, COS-1 supernatant, HRP-rabbit anti-human IgG
Description: An ELISA plate was coated with 2 ug/ml OPN. The binding activity of the humanized antibody obtained from the transfection was detected by ELISA. […] The amino acid sequences of the h1A12HBb's and the h1A12Lb's variable regions were shown in FIG. 4, SEQ ID NO: 18 and SEQ ID NO: 19 show the nucleotide sequence and the amino acid sequence of h1A12Hb's variable region respectively. SEQ ID NO: 20 and SEQ ID NO: 21 show the nucleotide sequence and the amino acid sequence of h1A12Lb's variable region respectively. The genes of the humanized antibody's VH and VL (h1A12VHb/h1A12VLb) were synthesized respectively. […] Then, expression vectors of the light and the heavy chain were used to co-transfect the COS-1 cells. The antibody's antigen-binding activity was determined by ELISA. Specifically, an ELISA plate was coated with OPN protein (2 ug/ml) coated at 4° C. overnight, and was blocked with 2% BSA-PBS for 2 h at 37° C. […] HRP-rabbit anti-human IgG was added into the plate for binding reaction (incubated at 37° C. for 1 h).

Molecule: OPN: human osteopontin protein expressed in Pichia yeast and purified (Example 3)
- 3H-TdR incorporation relative to the 1% BSA treatment group [1]: 3.08±0.64 times
- angiogenesis in the chicken embryo's CAM in comparison with PBS [2]: significantly enhance

- binding result [3]: binds
B1: murine anti-human OPN monoclonal antibody 1A12 (antibody, V domains shown)
VH: QVQLEQSGPELVKPGASVKMSCKSSGYTFTTYVMHWVKQKPGQGLEWIGYINPYNDGSKYNEKFKGKATLTSDKSSNTAYMELSSLTSEDSAVYYCASHYGGSPAYWGQGTLVTVSA
VL: DILMTQTPLSLPVSLGDQASISCRSSQSLVHSNGNTYLHWYLQKPGQSPKLLIYKVSNRFSGVPDRFSGSGSGTDFTLKISRVEAEDLGVYFCSQSTHVPWTFGGGTKLEIKR
notes: Hybridoma antibody purified from mouse ascites on protein A. Mouse constant regions; also called mouse anti-hOPN mAb 1A12; anti-OPN mAb 1A12

- binding result [4]: binds
B2: human-mouse chimeric anti-hOPN antibody c1A12 (antibody, human IgG1, kappa, V domains shown)
VH: B1 VH
VL: B1 VL
notes: Tested as COS-1 supernatant in the ELISA and as CHO-purified antibody in the cell assays; also called chimeric antibody c1A12
